The record followed here is US20250353873A1, “COMPOUNDS AND METHODS FOR MODULATING APOE EXPRESSION” (Ionis Pharmaceuticals, Inc., priority 2024, published 2025).

For series [1], the system named is human APOE RNA. The series can be described thus: Duration of action study in APOE C57BL/6NTac-Apoeem7250 knock-in mice (Example 16). It counts as in vivo. Conditions: 300 μg ICV. On the procedure: Modified oligonucleotides described above were tested in the APOE C57BL/6NTac-Apoeem7250 knock-in mouse model described above.
APOE C57BL/6NTac-Apoeem7250 knock-in mice were divided into groups of 2-4 mice each. Each mouse received a single intracerebroventricular (ICV) bolus of 300 μg of modified oligonucleotide. A group of 2-4 mice received a single ICV bolus with PBS as a negative control.
Mice were sacrificed at various timepoints as indicated in the table below and RNA was extracted from cortical brain tissue and spinal cord for quantitative real-time RT-PCR analysis of RNA expression of APOE using primer probe set RTS3073 (described herein above). APOE RNA levels were normalized to mouse Ppia. Mouse Ppia was amplified using primer probe set m_cyclo24 (described herein above). Results are presented as percent human APOE RNA relative to the amount of human APOE RNA in PBS treated animals, (% control). Each experiment is identified in separate tables below.

Series [2] relates to human APOE RNA. The series can be described thus: Activity in APOE C57BL/6NTac-Apoeem7250 knock-in mice, single ICV bolus, 4 weeks (Example 10). The class given is in vivo. Conditions: single ICV bolus 300 μg, 4 weeks post treatment, normalized to mouse Ppia. The procedure, abridged: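 Human APOE RNA, quantified by real-time RT-PCR with RTS3073 and normalized to mouse Ppia, was read in cortical brain and spinal cord 4 weeks post dosing. Dosing was a single ICV bolus of 300 μg per knock-in mouse; values are % of PBS-treated animals.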

Series [3] has as its system human APOE RNA. Description: Dose-dependent inhibition of human APOE RNA in HepG2 cells, electroporation, 50,000 cells per well, RT-PCR normalized to GAPDH (Example 4, Tables 8-10). It counts as cell-based. Conditions: HepG2, electroporation, 24-hour treatment. The procedure, abridged: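 Readout is percent APOE RNA versus untreated controls, measured by RT-PCR (primer probe set RTS3073) and normalized to human GAPDH. Modified oligonucleotides were delivered by electroporation at varying doses into HepG2 cells plated at 50,000 per well.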

Series [4] has as its system human APOE RNA. The series can be described thus: Activity in APOE C57BL/6NTac-Apoeem7250 knock-in mice, single ICV bolus, 8 weeks (Example 11). It counts as in vivo. Conditions: single ICV bolus 300 μg, 8 weeks post treatment, normalized to mouse Ppia. The gist of the method:
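Cortical and spinal cord human APOE RNA quantified by RT-qPCR 8 weeks after a single 300 μg ICV dose in knock-in mice, Ppia-normalized. Values are percent of levels in PBS-treated animals.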

The test system of series [5] is human APOE RNA. The series can be described thus: Activity in APOE C57BL/6NTac-Apoeem7250 knock-in mice, single ICV bolus, 16 weeks (Example 12). Conditions: single ICV bolus 300 μg, 16 weeks post treatment, normalized to mouse Ppia. It counts as in vivo. The gist of the method: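 A single 300 μg intracerebroventricular dose was given, with PBS-treated mice as reference; cortical and spinal cord tissue was taken 16 weeks later. RT-qPCR quantified human APOE RNA, Ppia-normalized, expressed relative to PBS animals (% control).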

Several values for one entry are separate records, joined by “and”; a condition that tells them apart may be missing. Equal values may be shown once. Strand notation (5' to 3'): a small letter for the sugar, then the base; units joined by * are phosphorothioate-linked, units joined directly phosphodiester-linked; [ ] holds rarer units or linkages, { } end groups; capitals alone tell only the bases. [PN] = cyclic guanidine phosphoramidate internucleoside linkage; [ms] = mesyl phosphoramidate linkage; e = 2'-O-(2-methoxyethyl) (MOE); k = constrained ethyl (cEt); [5mC] = 5-methylcytosine; d = 2'-deoxy (DNA)

For the substance “1721306: 6-10-4 MOE gapmer TTGGTGAATCTTTATTAAAC, linkages s[pn][pn][pn]oosssssszzss[n]ss (as printed) (sugars from the 5' end e6 d10 e4, all C 5-methyl, backbone not given here; further chemistry not fully specified) [compound 1721306]”, in series [1] (14 days post-dose), the “APOE RNA (% control) Cortex” value stood at 58 % control and the “APOE RNA (% control) Spinal Cord” value was 63 % control. Further, in series [1] (112 days post-dose), the “APOE RNA (% control) Cortex” value turned out to be 89 % control and the “APOE RNA (% control) Spinal Cord” value is on record as 60 % control.
In the same order, the values of “1721304: 6-10-4 MOE gapmer TTGGTGAATCTTTATTAAAC, linkages s[pn][pn][pn]oosssssszzssoss (eT*eT[PN]eG[PN]eG[PN]eTeGdA*dA*dT*d[5mC]*dT*dT*dT[ms]dA[ms]dT*dT*eAeA*eA*e[5mC]) [compound 1721304]” are 46 % control, 45 % control, 67 % control and 42 % control.
As for “1746811 (k[5mC]*dT[ms]dT[ms]kG*kG*dT[ms]dG[ms]dA[ms]dA[ms]dT*d[5mC]*dT*dT*dT*dA[ms]dT*dT[ms]kA*kA*kA; antisense) [Compound 1746811]”, the results for the “APOE RNA (% control) Cortex” value in series [1] (112 days post-dose), in series [1] (140 days post-dose) and in series [2] were 71 % control, 89 % control and 61 % control, respectively. In addition, the “APOE RNA (% control) Spinal Cord” value in series [1] (112 days post-dose) is recorded as 95 % control; in series [1] (140 days post-dose), 103 % control; in series [2], 62 % control. In addition, the “APOE RNA (% UTC)” value in series [3] (5 nM) is on record as 99 % UTC; in series [3] (13 nM), 86 % UTC; in series [3] (33 nM), 83 % UTC; in series [3] (82 nM), 95 % UTC; in series [3] (205 nM) it was 70 % UTC; in series [3] (512 nM) it was 54 % UTC. The “APOE RNA (% UTC)” value is on record as 47 % UTC in series [3] (1,280 nM), 23 % UTC in series [3] (3,200 nM), 12 % UTC in series [3] (8,000 nM) and 5 % UTC in series [3] (20,000 nM). This substance showed an IC50 in series [3] of 740 nM.
For “1721303: 6-10-4 MOE gapmer TTGGTGAATCTTTATTAAAC, linkages s[pn][pn][pn]oossssssssssoss (eT*eT[PN]eG[PN]eG[PN]eTeGdA*dA*dT*d[5mC]*dT*dT*dT*dA*dT*dT*eAeA*eA*e[5mC]) [compound 1721303]”, in series [1] (14 days post-dose), the “APOE RNA (% control) Cortex” value was found to be 36 % control and the “APOE RNA (% control) Spinal Cord” value is reported as 32 % control. Further, in series [1] (112 days post-dose), the “APOE RNA (% control) Cortex” value is given as 75 % control and the “APOE RNA (% control) Spinal Cord” value was 40 % control.
Consider “1746801 (k[5mC]*dT[ms]dT[ms]kG*kG*dT[ms]dG[ms]dA[ms]dA[ms]dT*d[5mC]*dT*dT*dT*dA[ms]dT*kT*dA[ms]kA*kA; antisense) [Compound 1746801]”, for which the “APOE RNA (% control) Cortex” value came out at 47 % control in series [1] (112 days post-dose), 67 % control in series [1] (140 days post-dose) and 58 % control in series [2]. Also, the “APOE RNA (% control) Spinal Cord” value is 70 % control in series [1] (112 days post-dose), 138 % control in series [1] (140 days post-dose) and 44 % control in series [2]. In addition, the “APOE RNA (% UTC)” value in series [3] (5 nM) is 93 % UTC; in series [3] (13 nM), 98 % UTC; in series [3] (33 nM), 114 % UTC; in series [3] (82 nM), 99 % UTC; in series [3] (205 nM), 76 % UTC; in series [3] (512 nM) it was 56 % UTC. Further, the “APOE RNA (% UTC)” value in series [3] (1,280 nM) was determined as 33 % UTC; in series [3] (3,200 nM) it was 11 % UTC; in series [3] (8,000 nM), 14 % UTC; in series [3] (20,000 nM), 2 % UTC. This substance displayed an IC50 in series [3] of 670 nM.
Consider “1721307: 6-10-4 MOE gapmer CTTGGTGAATCTTTATTAAA, linkages s[pn][pn][pn]oossssssssssoss (e[5mC]*eT[PN]eT[PN]eG[PN]eGeTdG*dA*dA*dT*d[5mC]*dT*dT*dT*dA*dT*eTeA*eA*eA) [compound 1721307]”, for which, in series [1] (14 days post-dose), the “APOE RNA (% control) Cortex” value came to 38 % control and the “APOE RNA (% control) Spinal Cord” value is 31 % control. Also, in series [1] (112 days post-dose), the “APOE RNA (% control) Cortex” value came out at 73 % control and the “APOE RNA (% control) Spinal Cord” value turned out to be 34 % control.
In the same order, the values of “1721309: 6-10-4 MOE gapmer CTTGGTGAATCTTTATTAAA, linkages s[pn][pn][pn]oossssssssss[pn]ss (e[5mC]*eT[PN]eT[PN]eG[PN]eGeTdG*dA*dA*dT*d[5mC]*dT*dT*dT*dA*dT*eT[PN]eA*eA*eA) [compound 1721309]” are 45 % control, 34 % control, 93 % control and 39 % control.
In the same order, the values of “1721305: 6-10-4 MOE gapmer TTGGTGAATCTTTATTAAAC, linkages s[pn][pn][pn]oossssssssss[pn]ss (eT*eT[PN]eG[PN]eG[PN]eTeGdA*dA*dT*d[5mC]*dT*dT*dT*dA*dT*dT*eA[PN]eA*eA*e[5mC]) [compound 1721305]” are 52 % control, 37 % control, 81 % control and 40 % control.
On to “1652901: 6-10-4 MOE gapmer TTGGTGAATCTTTATTAAAC, linkages sooooossssssssssoss (antisense eT*eTeGeGeTeGdA*dA*dT*d[5mC]*dT*dT*dT*dA*dT*dT*eAeA*eA*e[5mC]) [compound 1652901]”, for which the “APOE RNA (% control) Cortex” value in series [4] (cortex) was 47 % control and 49 % control; in series [1] (14 days post-dose) it was 43 % control; in series [1] (112 days post-dose), 90 % control; in series [5] (cortex), 104 % control. Further, the “APOE RNA (% control) Spinal Cord” value is 18 % control and 27 % control in series [4] (spinal cord); 33 % control in series [1] (14 days post-dose); 51 % control in series [1] (112 days post-dose); 61 % control in series [5] (spinal cord).
Regarding “1721308: 6-10-4 MOE gapmer CTTGGTGAATCTTTATTAAA, linkages s[pn][pn][pn]oossssssszzsoss (e[5mC]*eT[PN]eT[PN]eG[PN]eGeTdG*dA*dA*dT*d[5mC]*dT*dT*dT[ms]dA[ms]dT*eTeA*eA*eA) [compound 1721308]”, in series [1] (14 days post-dose), the “APOE RNA (% control) Cortex” value is listed as 48 % control and the “APOE RNA (% control) Spinal Cord” value was determined as 45 % control. Besides, in series [1] (112 days post-dose), the “APOE RNA (% control) Cortex” value was determined as 85 % control and the “APOE RNA (% control) Spinal Cord” value was 42 % control.
In the same order, the values of “1721310: 6-10-4 MOE gapmer CTTGGTGAATCTTTATTAAA, linkages s[pn][pn][pn]oossssssszzs[pn]ss (e[5mC]*eT[PN]eT[PN]eG[PN]eGeTdG*dA*dA*dT*d[5mC]*dT*dT*dT[ms]dA[ms]dT*eT[PN]eA*eA*eA) [compound 1721310]” are 35 % control, 38 % control, 88 % control and 65 % control.

For orientation: IC50 means the concentration needed to halve the response being measured.
